Series [1] concerns JUNV MG. Kind of series: microbe, parasite or virus in culture. The class given is cell-based, Junin virus (JUNV).
Series [2] relates to JUNV (Candid #1 strain). Kind of series: microbe, parasite or virus in culture. Format: cell-based, Junin virus (JUNV).
Series [3] has as its system LASV MG. Kind of series: microbe, parasite or virus in culture. The conditions noted are these: for inhibition of LASV MG activity (rescreening): 5 µM; for inhibition at 5 µM: Huh-7, read-out: inhibition of LASV MG activity (rescreening). Format: cell-based, Lassa virus (LASV).
In series [4] the test system is LCMV (rLCMV.Arm). Kind of series: microbe, parasite or virus in culture. Format: cell-based, lymphocytic choriomeningitis virus (LCMV).
The nature of series [5]: in vitro. The conditions noted are these: human.
Series [6] has as its system A549 cells.
For series [7], the system named is LCMV MG. The class given is cell-based, lymphocytic choriomeningitis virus (LCMV). The conditions noted are these: 5 µM.
For series [8], the system named is A549 cells. This is another data set of the same source.
Series [9] has as its system Huh-7 cells. The conditions noted are these: 5 µM.
A short description of series [10]: in vitro. To be noted: human. This is another data set of the same source.
Series [11] is described as follows: in vitro. The conditions noted are these: human. This is another data set of the same source.
Series [12] in a line: in vitro. To be noted: human. The source holds these as a separate data set.
Setting [13] is: Mammarenavirus juninense, Huh-7.
[14] abbreviates: Mammarenavirus juninense, A549, 48 h.
The mark [15] stands for this setting: Mammarenavirus lassaense, Huh-7.
Where [16] appears, read: Mammarenavirus choriomeningitidis, A549, 24 h.

Structures can show the parent of a compound that is named as a salt. Where two headings read alike, the source gives them in different places.

Data on 10 molecules can be found in article PMC9866940 (Viruses, 2022).

The IC50 is the concentration at which inhibition is half-maximal. Take `CN(C)CCN1C(=O)c2cccc3cc(N)cc(c23)C1=O` [amonafide]: the concentration for half-maximal inhibition (IC50) in series [1] (setting [13]) stood at 2900 nM; in series [2] (setting [14]) it was 5750 nM; in series [3] (setting [15]), 2890 nM; in [4] (setting [16]), 10000 nM. In series [5], the CC50 is at least 40000 nM.
Take `Cc1c2ccncc2c(C)c2c1[nH]c1ccccc12.Cl` [ellipticine hydrochloride]: the values for the CC50 in series [6] and in series [8] were 32500 nM and at least 20000 nM, respectively. In addition, the IC50 in [1] (read-out: IC50) came out at 760 nM; in series [2] (read-out: IC50), 1730 nM; in series [3] (read-out: IC50), 760 nM; in [4] (read-out: IC50) it was 1500 nM. The “inhibition of LCMV MG activity” value in [7] was found to be 95%.
In turn, `CCN(CC)CCCC(C)Nc1c2ccc(Cl)cc2nc2ccc(OC)cc12` (stereo not shown) [QDD, quinacrine dihydrochloride dihydrate] came in with a CC50 in series [6] (human) of 28000 nM. The concentration for half-maximal inhibition (IC50) in series [1] was 1460 nM; in series [2] it was 4660 nM; in series [3] it was 1280 nM. The “inhibition of LASV MG activity (rescreening)” value in series [3] is “at least 90%”. Also, in series [9] (human), the “cell viability (rescreening)” value was over 70%.
`NCCNc1ccc(NCCN)c2c1C(=O)c1ccncc1C2=O.O=C(O)/C=C\C(=O)O.O=C(O)/C=C\C(=O)O` [pixantrone maleate]: the CC50 in [6] was 30300 nM; in series [8], at least 40000 nM. Moreover, the IC50 is 1810 nM in series [1] (read-out: IC50), 3660 nM in series [2] (read-out: IC50), 1010 nM in series [3] (read-out: IC50) and 4750 nM in series [4] (read-out: IC50). In addition, in series [3], the “inhibition of LASV MG activity (rescreening)” value is reported as “at least 90%”. Further, the “cell viability (rescreening)” value in series [9] is reported as over 70%.
On to `CN[C@H]1CN(c2ccc3c(=O)c(C(=O)O)cn(-c4nccs4)c3n2)C[C@@H]1OC` [voreloxin (SNS 595) hydrochloride], for which the CC50 in series [6] is 13300 nM; in series [8], at least 40000 nM. Besides, the IC50 turned out to be 1150 nM in series [1] (read-out: IC50), 5230 nM in series [2] (read-out: IC50), 1820 nM in [3] (read-out: IC50) and 8500 nM in series [4] (read-out: IC50).
In general, inhibition refers to the relative decrease from the control value, in per cent. The term viability denotes a read-out of living cells in per cent, often relative to untreated cells. Low readings indicate a greater loss of cells, high ones better survival. `CCN(CC)CCCC(C)Nc1c2ccc(Cl)cc2nc2ccc(OC)cc12` (stereo not shown) [quinacrine dihydrochloride]: the half-maximal inhibitory concentration (IC50) is 1510 nM in series [1] (setting [13]), 7330 nM in [2] (setting [14]) and 1670 nM in [3] (setting [15]). Further, the inhibition at 5 µM in [3] (Mammarenavirus lassaense) is at least 90%. The viability at 5 µM in series [10] was over 70%.
For `Nc1ccc2cc3ccc(N)cc3nc2c1` [proflavine], the IC50 was determined as 1360 nM in [1] (setting [13]), 2450 nM in [2] (setting [14]) and 1040 nM in [3] (setting [15]). For the same molecule, in series [3] (Mammarenavirus lassaense), the inhibition at 5 µM is at least 90%. In addition, the viability at 5 µM in [10] was over 70%.
Regarding `NC(=O)c1ncn([C@@H]2O[C@H](CO)[C@@H](O)[C@H]2O)n1` [ribavirin, Ribavirin], the 50% inhibitory concentration (IC50) in series [1] (setting [13]) was found to be 38200 nM; in series [2] (setting [14]), 45400 nM; in series [3] (setting [15]) it was 15400 nM; in [4] (setting [16]), 20200 nM. Further, the CC50 was at least 200000 nM in series [11], at least 100000 nM in series [5], at least 200000 nM in series [12] and at least 200000 nM in series [10] (CC50).
As to `COc1c(C)c2c(c(O)c1C/C=C(\C)CCC(=O)O)C(=O)OC2` [MPA, mycophenolic acid], the IC50 in series [1] (setting [13]) turned out to be 420 nM; in series [2] (setting [14]) it was 970 nM; in series [3] (setting [15]), 370 nM.
Turning to `CC(=O)[C@]1(O)Cc2c(O)c3c(c(O)c2[C@@H](O[C@H]2C[C@H](N)[C@H](O)[C@H](C)O2)C1)C(=O)c1ccccc1C3=O` [idarubicin hydrochloride], the IC50 stood at 120 nM in series [1] (setting [13]), 2560 nM in series [2] (setting [14]), 60 nM in [3] (setting [15]) and 590 nM in series [4] (setting [16]). In series [5], this molecule displayed a CC50 of 790 nM.
